Literature values, collected in US10201964B2, “Treatment for reducing the toxicity of 3D-printed parts” (The Regents of the University of California, priority 2015, dated 2019).

Tests used:
[1] = system: rat fetuses
[2] = when used as scaffolds

Row | Compound | toxic effects on embryonic and fetal development [1] | cardiovascular failure [2]
1 | C=CC(=O)O [acrylic acid] | toxic effects on embryonic and fetal development in rat fetuses | –
2 | C=C(C)C(=O)O [methacrylic acid] | toxic effects on embryonic and fetal development in rat fetuses | –
3 | C=C(C)C(=O)OC [methylmethacrylate] | – | associated with irreversible cardiovascular failure
